# Source: paper PMC9795464 (JACS Au, 2022)
# How the values were obtained:
# [1] = system: inflammation, fibrosis and FXR target genes in liver; experiment: Liver mRNA levels by qPCR in BDL mice; assay type: in vivo
# [2] = system: BDL-induced liver injury in mice; experiment: Bile duct ligation; assay type: in vivo
# FXR = target: T1, FXR (Homo sapiens, UniProt Q96RI1); experiment: AlphaScreen corepressor NCoR-2 recruitment assay; assay type: biochemical; conditions: Figure 1I
# T1 sequence (Q96RI1 243-472 isoform Q96RI1-2): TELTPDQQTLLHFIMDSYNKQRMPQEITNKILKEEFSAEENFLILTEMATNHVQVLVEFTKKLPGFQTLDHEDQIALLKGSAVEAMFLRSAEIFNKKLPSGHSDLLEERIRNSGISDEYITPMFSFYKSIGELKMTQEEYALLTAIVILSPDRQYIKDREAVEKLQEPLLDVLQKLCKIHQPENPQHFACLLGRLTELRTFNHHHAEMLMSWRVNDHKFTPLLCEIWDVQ
# [3] = 3 mg/kg p.o. once daily day 7 to 14 after BDL
compound,measurement,setting,value
"CC[C@H]1[C@@H](O)[C@@H]2[C@H](CC[C@]3(C)[C@@H]([C@H](C)CCC(=O)O)CC[C@@H]23)[C@@]2(C)CC[C@@H](O)C[C@@H]12 [OCA, Obeticholic acid]","liver mRNA expression of inflammatory biomarkers IL-6, IL-1β, iNOS, COX2",[1],significantly decreased
same,collagen deposition (Sirius red) compared to the vehicle group,[2]; [3],smaller amount
same,inflammatory infiltrates (H&E) compared to the vehicle group,[2]; [3],lower level
same,BDL-induced increase in total bilirubin level in the serum,[2]; once daily day 7 to 14 after BDL,reversed
same,binding affinity between FXR and NCoR2,FXR,decreased the binding affinity
